Results: patent publication US9868715B2 (THE BOARD OF REGENTS OF THE UNIVERSITY OF TEXAS SYSTEMS, priority 2014, dated 2018)

Assays:
[1] = target: T1, human CBS (cystathionine-β-synthase) (Homo sapiens, UniProt P35520); test: H2S production by recombinant CBS; assay type: biochemical; conditions: 100 μM compound; H2S production as % of control (100%)
T1 construct: GST (N); made in house; host or cells: E. coli BL21(DE3) Codon Plus
T1 sequence (P35520 1-551): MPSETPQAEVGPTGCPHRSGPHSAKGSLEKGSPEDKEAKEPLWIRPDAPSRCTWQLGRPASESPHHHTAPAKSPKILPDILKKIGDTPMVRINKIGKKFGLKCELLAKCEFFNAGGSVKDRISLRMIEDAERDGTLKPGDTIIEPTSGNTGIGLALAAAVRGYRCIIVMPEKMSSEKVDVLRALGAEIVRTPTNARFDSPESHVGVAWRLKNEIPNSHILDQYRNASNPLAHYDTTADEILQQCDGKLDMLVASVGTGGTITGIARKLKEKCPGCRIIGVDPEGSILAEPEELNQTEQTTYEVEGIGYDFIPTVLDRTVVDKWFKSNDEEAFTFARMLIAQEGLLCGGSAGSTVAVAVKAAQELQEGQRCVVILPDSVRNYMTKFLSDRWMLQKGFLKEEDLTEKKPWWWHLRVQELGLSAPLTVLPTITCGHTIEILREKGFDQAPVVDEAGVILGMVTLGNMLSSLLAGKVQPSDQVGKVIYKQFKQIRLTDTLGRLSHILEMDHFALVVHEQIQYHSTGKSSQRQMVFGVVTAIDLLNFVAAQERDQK
Method: Recombinant human CBS protein expression and purification. The expression and purification of human CBS was performed as described previously (Asimakopoulou et al. 2013, Br J Pharmacol. 169(4):922-32). Briefly, E. Coli BL21(DE3) Codon Plus cells (Stratagene, La Jolla, Calif., USA) containing the expression vector pGEX-Kg/GST-CBS were grown at 37° C. and 180 rpm in LuriaBertani (LB) broth medium containing 100 μg/ml ampicillin to an absorption of 0.6-0.8 at 600 nm. Protein expression was induced by addition of 0.1 mM IPTG (isopropyl-b-D-thiogalactopyranoside) and cells were further incubated at 30° C. overnight. The bacteria were harvested and sonicated in lysis buffer PBS (140 mM NaCl, 2.7 mM KCl, 10 mM Na2HPO4, 1.8 mM KH2PO4, pH 7.8) containing a protease inhibitors cocktail (Sigma). The protein lysate was loaded onto a GSTrap FF 1 ml affinity column (Amersham Biosciences) and the GST-CBS recombinant protein was eluted with the elution buffer (50 mM Tris-HCl, 10 mM reduced glutathione, pH 8.0) and then dialyzed and concentrated in 10 mM sodium phosphate buffer (pH 8.2) and DTT (1 mM).
Measurement of H2S production by recombinant CBS. The measurement of H2S production by recombinant CBS enzyme was performed as described (Asimakopoulou et al. 2013, Br J Pharmacol. 169(4):922-32). Briefly, each test consisted of a 100 μl reaction mixture in 50 mM sodium phosphate buffer pH 8.2 containing 1 μg of the purified human CBS enzyme, 0.01 mM pyridoxal-5′-phosphate (PLP), 10 mM L-cysteine and 0.5 mM homocysteine. […] The reaction was initiated by transferring the Eppendorf tubes from ice to a 37° C. shaking water bath. After 60 minutes of incubation at 37° C., the reaction was terminated by adding 1% ZnAc followed by 10% trichloroacetic acid. Subsequently, N,N-dimethylphenylendiamine sulfate (20 mM in 7.2 M HCl) and FeCl3 (30 mM in 1.2 M HCl) were added and the optical absorbance of the solutions was measured at 650 nm.

[2] = system: transformed PSC (human pancreatic stellate cells); test: PSC proliferation, AlamarBlue Cell Viability Assay; assay type: cell-based; conditions: for inhibition at 20 µM / inhibition at 5 µM / inhibition at 10 µM: Homo sapiens, read-out: Inhibitory Effect (%) on PSC proliferation; for inhibition at 20 µM / Inhibitory Effect (%) on PSC proliferation / inhibition at 5 µM / inhibition at 10 µM: mean of at least three independent experiments, NE = No effect; for Antiproliferative effect on PSC, result in words: transformed PSC, AlamarBlue; for Inhibitory Effect (%) on PSC proliferation / inhibition at 10 µM: 10 μM
Method: The calculated lipophilicity (cLogP) and topological polar surface area (tPSA) values of synthesized analogues are listed in Table 1. […] AlamarBlue is a non-toxic reagent that is converted to a highly fluorescent end product by viable cells.
Under an IRB-approved tissue protocol, discarded human resected pancreatic tissue (500 mm^3) was attained fresh from the operating room at the University of Texas Medical Branch. The tissue was minced and plated on a collagen-coated flask (15 μg/mL, Invitrogen) with DMEM (VWR; Radnor, Pa.) supplemented with penicillin 200 U/mL, streptomycin 200 μg/mL, amphotericin B 0.25 μg/mL and gentimicin 50 μg/mL (Invitrogen, Carlsbad Calif.), 10% fetal bovine serum (Lonza, Walkersville, Md.), 1% insulin-transferrin, selenium-ethanolamine (Gibco, Grand Island, N.Y.), and 1% non-essential amino acids (Sigma-Aldrich, St. Louis, Mo.). The human PSC were isolated by the outgrowth method.^41-43 The purity of PSC culture was confirmed by immunohistochemical staining for vimentin, α-smooth muscle actin, glial fibrillar acidic protein, or Oil red O staining. Primary PSC were transformed and immortalized for use in experiments using lentiviral vectors containing SV40 Large T antigen and human telomerase (plasmid #12245 and 12246; Addgene, Cambridge, Mass.). Cultures were maintained in DMEM with 10% FBS, at 37° C. in a humidified 95% O2/5% CO2 atmosphere.
Cell proliferation assay. Transformed PSC (3×10^3) were plated in 96-well plates, in sextuplicate. […] AlamarBlue reagent (10% sample volume, DAL1025) was added to each well per Invitrogen's protocol. Fluorescence was recorded using excitation/emission wavelengths of 544/590 nm and the SpectraMax M2 Microplate Reader (Molecular Devices, Sunnyvale Calif.).
Statistical analysis. Dose-response curves were generated by plotting fluorescence or absorbance versus log (compound concentration). A best-fit curve was created using nonlinear regression, and the IC50 or EC50 determined from the graph (GraphPad Prism 5; GraphPad Software Inc., La Jolla, Calif.). To analyze continuos variables, unpaired student t-tests and one-way ANOVA with Tukey-Kramer multiple comparisons post-test (GraphPad Prism 5). Significance was set at p<0.05.

Row | Compound | activity at 100 µM [1] [%] | inhibition at 20 µM [2] [%] | Antiproliferative effect on PSC, result in words [2] | melting point [°C] | Inhibitory Effect (%) on PSC proliferation [2] [%] | inhibition at 5 µM [2] [%] | inhibition at 10 µM [2] [%]
1 | COc1cc(OC)c2c(=O)cc(-c3ccc(O)cc3)oc2c1 [Compound 6, 2-(4-Hydroxy-phenyl)-5,7-dimethoxy-chromen-4-one] | 130 |  |  |  |  |  | 
2 | COc1cc(OC)c2c(=O)cc(-c3ccc(OCCBr)cc3)oc2c1 [Compound 7, 2-(4-(2-Bromoethoxy)phenyl)-5,7-dimethoxy-chromen-4-one] | 121 | 20 | slightly increased antiproliferative effects in comparison with 6 | 202 to 203 |  |  | 
3 | COc1cc(OC)c2c(=O)cc(-c3ccc(OCCF)cc3)oc2c1 [Compound 8, 2-(4-(2-Fluoroethoxy)phenyl)-5,7-dimethoxy-chromen-4-one] | 127 | 21 | slightly increased antiproliferative effects in comparison with 6 | 187 to 188 |  |  | 
4 | COc1cc(OC)c2c(=O)cc(-c3ccc(OC4CCN(C)CC4)cc3)oc2c1 [Compound 9, 5,7-Dimethoxy-2-(4-(1-methylpiperidin-4-yloxy)phenyl)-chromen-4-one] | 122 |  |  | 143 to 144 | 49 | 28 | 49
5 | COc1cc(OC)c2c(=O)cc(-c3ccc(OCCN(C)C)cc3)oc2c1 [Compound 10, 2-(4-(2-Dimethylaminoethoxy)phenyl)-5,7-dimethoxy-chromen-4-one] | 125 | 65 |  | 153 to 154 | 51 | 19 | 51
6 | COc1cc(OC)c2c(=O)cc(-c3ccc(OCCN4CCOCC4)cc3)oc2c1 [Compound 11, 5,7-Dimethoxy-2-(4-(2-morpholin-4-yl-ethoxy)phenyl)-chromen-4-one] | 117 |  |  | 149 to 150 |  |  | 
7 | COc1cc(OC)c2c(=O)cc(-c3ccc(OCCCN(C)C)cc3)oc2c1 [Compound 12, 2-(4-(3-Dimethylaminopropoxy)phenyl)-5,7-dimethoxy-chromen-4-one] | 83.9 | 86 |  | 105 to 106 | 59 | 36 | 59
8 | COc1cc(OC)c2c(=O)cc(-c3ccc(OCCN4CCCC4=O)cc3)oc2c1 [Compound 13, 1-(2-(4-(5,7-Dimethoxy-4-oxo-4H-chromen-2-yl)phenoxy)ethyl)-pyrrolidin-2-one] | 108 | 33 |  | 115 to 116 |  | 7 | 14
9 | COc1cc(OC)c2c(=O)cc(-c3ccc(OCCN4CCN(C)CC4)cc3)oc2c1 [Compound 15, 5,7-Dimethoxy-2-(4-(2-(4-methylpiperazin-1-yl)ethoxy)phenyl)-chromen-4-one] | 124 | 67 |  | 144 to 145 |  | 22 | 42
10 | CCN(CC)CCOc1ccc(-c2cc(=O)c3c(OC)cc(OC)cc3o2)cc1 [Compound 17, 2-(4-(2-Diethylaminoethoxy)-phenyl)-5,7-dimethoxy-chromen-4-one] | 106 | 72 |  | 116 to 117 |  | 33 | 60
11 | COC(=O)[C@@H]1CCCN1CCOc1ccc(-c2cc(=O)c3c(OC)cc(OC)cc3o2)cc1 [Compound 18, 1-(2-(4-(5,7-Dimethoxy-4-oxo-4H-chromen-2-yl)phenoxy)ethyl)-pyrrolidine-2-carboxylic acid methyl ester] | 116 | 67 |  | 121 to 122 |  | 22 | 37
12 | COc1cc(OC)c2c(=O)cc(-c3ccc(OC4CCNCC4)cc3)oc2c1 [Compound 19, 5,7-Dimethoxy-2-(4-(piperidin-4-yloxy)-phenyl)-chromen-4-one] | 115 |  |  | 205 to 206 |  |  | 21
13 | COc1cc(OC)c2c(=O)cc(-c3ccc(OCCN)cc3)oc2c1 [Compound 20, 2-(4-(2-Aminoethoxy)-phenyl)-5,7-dimethoxy-chromen-4-one] | 119 | 70 |  | 165 to 166 |  | 6 | 35
14 | COc1cc(OC)c2c(=O)cc(-c3ccc(OCCCN)cc3)oc2c1 [Compound 21, 2-(4-(3-Aminopropoxy)-phenyl)-5,7-dimethoxy-chromen-4-one] | 116 |  |  | 170 to 171 |  | 22 | 39
15 | COc1cc(OC)c2c(=O)cc(-c3ccc(OCC(O)CN4CCCC4)cc3)oc2c1 (centres unmarked) [Compound 25, 2-(4-(2-Hydroxy-3-pyrrolidin-1-yl-propoxy)phenyl)-5,7-dimethoxy-chromen-4-one] | 85.9 | 57 |  | 137 to 138 |  | 21 | 37
16 | COc1cc(OC)c2c(=O)cc(-c3ccc(OCC(O)CN(C)C)cc3)oc2c1 (centres unmarked) [Compound 26, 2-(4-(3-Dimethylamino-2-hydroxypropoxy)-phenyl)-5,7-dimethoxy-chromen-4-one] | 117 | 71 |  | 92 to 93 |  | 42 | 60
17 | COc1cc(OC)c2c(=O)cc(-c3ccc(Br)cc3)oc2c1 [Compound 31, 2-(4-Bromophenyl)-5,7-dimethoxy-chromen-4-one] | 69.4 | 22 |  |  |  | 12 | 10
